Source: ChEMBL document CHEMBL4507268 (2021)

Tests used:
[1] = molecular target: Serine/threonine-protein kinase 35 (Homo sapiens) (UniProt Q8TDR2); conditions: Compound concentration 1000.0 nM
[2] = test system: Receptor-type tyrosine-protein kinase FLT3 (Homo sapiens), P36888 [R834Q]; conditions: Compound concentration 1000.0 nM
[3] = molecular target: Cyclin-dependent kinase 3 (Homo sapiens) (UniProt Q00526); conditions: Compound concentration 1000.0 nM
[4] = molecular target: Tyrosine-protein kinase Blk (Homo sapiens) (UniProt P51451); conditions: Compound concentration 1000.0 nM
Sequence of Tyrosine-protein kinase Blk (Homo sapiens) (P51451 2-505 limits assumed): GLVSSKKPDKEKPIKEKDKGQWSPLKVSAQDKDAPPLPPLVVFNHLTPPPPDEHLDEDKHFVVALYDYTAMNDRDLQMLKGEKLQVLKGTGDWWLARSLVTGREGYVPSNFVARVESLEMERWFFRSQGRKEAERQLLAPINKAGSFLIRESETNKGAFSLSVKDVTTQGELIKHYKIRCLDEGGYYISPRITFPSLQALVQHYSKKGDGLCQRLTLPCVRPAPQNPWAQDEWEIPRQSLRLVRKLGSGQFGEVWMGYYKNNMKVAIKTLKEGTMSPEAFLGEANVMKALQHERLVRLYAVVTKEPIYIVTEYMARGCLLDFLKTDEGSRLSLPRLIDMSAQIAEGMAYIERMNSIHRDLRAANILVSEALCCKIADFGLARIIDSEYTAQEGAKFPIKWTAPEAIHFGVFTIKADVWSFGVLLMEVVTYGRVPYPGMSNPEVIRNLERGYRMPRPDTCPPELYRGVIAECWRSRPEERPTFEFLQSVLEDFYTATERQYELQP

[5] = molecular target: T1, Activin receptor type-1 (Homo sapiens) (UniProt Q04771); conditions: Compound concentration 1000.0 nM
T1 sequence (whole entry): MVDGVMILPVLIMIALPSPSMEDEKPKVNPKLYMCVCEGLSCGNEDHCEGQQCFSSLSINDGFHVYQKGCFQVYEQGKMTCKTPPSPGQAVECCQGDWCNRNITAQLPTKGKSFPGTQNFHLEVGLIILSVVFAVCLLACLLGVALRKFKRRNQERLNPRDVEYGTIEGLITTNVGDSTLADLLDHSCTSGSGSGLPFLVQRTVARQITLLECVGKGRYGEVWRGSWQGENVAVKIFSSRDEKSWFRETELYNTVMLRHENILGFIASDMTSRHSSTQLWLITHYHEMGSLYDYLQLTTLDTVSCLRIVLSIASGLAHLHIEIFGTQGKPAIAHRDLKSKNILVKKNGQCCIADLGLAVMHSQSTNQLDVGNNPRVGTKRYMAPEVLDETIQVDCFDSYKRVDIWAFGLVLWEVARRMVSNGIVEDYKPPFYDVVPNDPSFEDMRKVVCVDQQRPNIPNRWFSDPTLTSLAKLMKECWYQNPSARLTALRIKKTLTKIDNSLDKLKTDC

[6] = molecular target: T2, Tyrosine-protein kinase ZAP-70 (Homo sapiens) (UniProt P43403); conditions: Compound concentration 1000.0 nM
T2 sequence (whole entry): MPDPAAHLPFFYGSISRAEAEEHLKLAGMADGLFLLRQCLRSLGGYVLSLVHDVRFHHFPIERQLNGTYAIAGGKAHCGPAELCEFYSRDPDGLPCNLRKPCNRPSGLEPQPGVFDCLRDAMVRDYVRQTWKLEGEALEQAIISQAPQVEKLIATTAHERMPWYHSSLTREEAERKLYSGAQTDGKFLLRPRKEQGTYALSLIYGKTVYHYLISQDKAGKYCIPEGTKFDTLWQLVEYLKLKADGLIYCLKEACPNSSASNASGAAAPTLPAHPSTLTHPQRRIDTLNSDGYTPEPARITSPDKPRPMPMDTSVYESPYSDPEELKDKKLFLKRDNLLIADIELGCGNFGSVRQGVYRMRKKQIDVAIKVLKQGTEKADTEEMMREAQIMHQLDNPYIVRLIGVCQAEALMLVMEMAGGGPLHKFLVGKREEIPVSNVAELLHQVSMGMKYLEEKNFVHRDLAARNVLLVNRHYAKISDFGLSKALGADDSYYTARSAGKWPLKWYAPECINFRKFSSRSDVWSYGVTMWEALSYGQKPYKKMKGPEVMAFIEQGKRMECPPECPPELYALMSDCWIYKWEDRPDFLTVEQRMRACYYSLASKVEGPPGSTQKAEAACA

[7] = molecular target: T3, Ephrin type-A receptor 8 (Homo sapiens) (UniProt P29322); conditions: Compound concentration 1000.0 nM
T3 sequence (whole entry): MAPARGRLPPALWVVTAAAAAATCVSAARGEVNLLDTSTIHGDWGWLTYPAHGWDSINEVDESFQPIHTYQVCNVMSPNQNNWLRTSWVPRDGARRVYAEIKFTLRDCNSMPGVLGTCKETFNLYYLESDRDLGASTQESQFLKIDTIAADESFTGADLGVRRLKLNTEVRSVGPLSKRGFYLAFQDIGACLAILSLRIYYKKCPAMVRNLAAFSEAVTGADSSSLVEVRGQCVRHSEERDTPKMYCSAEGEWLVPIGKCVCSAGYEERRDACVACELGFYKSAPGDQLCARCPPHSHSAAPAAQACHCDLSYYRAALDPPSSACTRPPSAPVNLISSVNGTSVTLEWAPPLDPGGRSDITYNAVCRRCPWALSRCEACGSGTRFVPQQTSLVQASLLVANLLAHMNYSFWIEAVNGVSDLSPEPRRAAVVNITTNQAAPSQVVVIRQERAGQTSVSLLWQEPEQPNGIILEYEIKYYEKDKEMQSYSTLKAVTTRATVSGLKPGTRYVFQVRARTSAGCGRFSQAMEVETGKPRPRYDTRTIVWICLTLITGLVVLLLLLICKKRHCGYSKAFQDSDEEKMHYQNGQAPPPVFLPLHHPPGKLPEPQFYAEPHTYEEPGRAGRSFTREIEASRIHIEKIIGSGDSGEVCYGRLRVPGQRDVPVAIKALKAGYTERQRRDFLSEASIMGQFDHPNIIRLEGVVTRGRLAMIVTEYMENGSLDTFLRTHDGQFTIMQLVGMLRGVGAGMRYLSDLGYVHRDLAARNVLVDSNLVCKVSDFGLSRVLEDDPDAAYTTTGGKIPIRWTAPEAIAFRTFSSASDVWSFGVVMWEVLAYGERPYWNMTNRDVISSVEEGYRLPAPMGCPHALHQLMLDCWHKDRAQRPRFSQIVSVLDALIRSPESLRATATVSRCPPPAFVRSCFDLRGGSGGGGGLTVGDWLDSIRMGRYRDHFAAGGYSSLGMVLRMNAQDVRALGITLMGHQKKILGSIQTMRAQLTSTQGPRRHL

[8] = molecular target: Tyrosine-protein kinase Fes/Fps (Homo sapiens) (UniProt P07332); conditions: Compound concentration 1000.0 nM
Sequence of Tyrosine-protein kinase Fes/Fps (Homo sapiens) (P07332 whole entry): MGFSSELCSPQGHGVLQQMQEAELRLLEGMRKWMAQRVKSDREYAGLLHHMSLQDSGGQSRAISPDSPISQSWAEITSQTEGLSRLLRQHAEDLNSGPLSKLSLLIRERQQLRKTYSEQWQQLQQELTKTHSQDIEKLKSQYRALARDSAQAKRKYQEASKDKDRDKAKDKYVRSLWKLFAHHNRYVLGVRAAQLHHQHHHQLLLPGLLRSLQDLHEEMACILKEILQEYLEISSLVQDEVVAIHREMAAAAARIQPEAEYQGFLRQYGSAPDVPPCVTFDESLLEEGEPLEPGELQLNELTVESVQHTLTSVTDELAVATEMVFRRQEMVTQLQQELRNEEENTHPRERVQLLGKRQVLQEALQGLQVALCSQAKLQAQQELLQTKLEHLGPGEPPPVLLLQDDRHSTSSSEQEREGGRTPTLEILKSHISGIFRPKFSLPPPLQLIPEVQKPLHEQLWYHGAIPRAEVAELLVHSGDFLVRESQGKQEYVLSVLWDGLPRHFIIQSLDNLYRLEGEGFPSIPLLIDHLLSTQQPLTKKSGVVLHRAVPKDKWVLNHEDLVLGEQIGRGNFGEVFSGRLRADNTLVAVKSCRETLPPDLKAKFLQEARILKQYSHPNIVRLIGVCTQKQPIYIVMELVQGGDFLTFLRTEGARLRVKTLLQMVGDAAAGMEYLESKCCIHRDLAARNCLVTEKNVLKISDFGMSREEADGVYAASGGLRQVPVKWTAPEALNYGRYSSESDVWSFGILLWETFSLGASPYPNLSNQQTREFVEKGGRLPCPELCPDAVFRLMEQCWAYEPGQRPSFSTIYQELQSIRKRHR

[9] = molecular target: Ribosomal protein S6 kinase alpha-2 (Homo sapiens) (UniProt Q15349); conditions: Compound concentration 1000.0 nM
Sequence of Ribosomal protein S6 kinase alpha-2 (Homo sapiens) (Q15349 whole entry): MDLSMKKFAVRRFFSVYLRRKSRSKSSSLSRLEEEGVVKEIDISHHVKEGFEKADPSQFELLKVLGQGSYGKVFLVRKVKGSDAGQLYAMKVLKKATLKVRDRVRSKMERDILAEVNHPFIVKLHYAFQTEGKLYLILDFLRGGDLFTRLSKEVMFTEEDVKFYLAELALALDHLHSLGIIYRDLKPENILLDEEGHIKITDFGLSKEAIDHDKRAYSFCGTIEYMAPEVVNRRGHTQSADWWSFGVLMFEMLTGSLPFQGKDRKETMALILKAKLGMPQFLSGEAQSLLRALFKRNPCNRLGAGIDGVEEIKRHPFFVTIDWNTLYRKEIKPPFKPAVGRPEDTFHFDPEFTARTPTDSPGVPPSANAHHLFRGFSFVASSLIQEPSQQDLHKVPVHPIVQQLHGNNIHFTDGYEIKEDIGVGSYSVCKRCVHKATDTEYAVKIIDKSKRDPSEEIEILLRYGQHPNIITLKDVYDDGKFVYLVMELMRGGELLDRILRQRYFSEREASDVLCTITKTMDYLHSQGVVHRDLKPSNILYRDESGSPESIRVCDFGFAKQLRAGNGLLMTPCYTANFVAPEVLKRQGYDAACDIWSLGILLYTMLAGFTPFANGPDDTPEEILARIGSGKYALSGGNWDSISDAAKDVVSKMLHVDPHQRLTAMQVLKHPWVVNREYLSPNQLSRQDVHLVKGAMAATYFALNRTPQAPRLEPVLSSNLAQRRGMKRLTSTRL

[10] = test system: Proto-oncogene tyrosine-protein kinase receptor Ret (Homo sapiens), P07949 [V804M]; conditions: Compound concentration 1000.0 nM
Sequence of Proto-oncogene tyrosine-protein kinase receptor Ret (Homo sapiens), P07949 [V804M] (P07949 whole entry V804M): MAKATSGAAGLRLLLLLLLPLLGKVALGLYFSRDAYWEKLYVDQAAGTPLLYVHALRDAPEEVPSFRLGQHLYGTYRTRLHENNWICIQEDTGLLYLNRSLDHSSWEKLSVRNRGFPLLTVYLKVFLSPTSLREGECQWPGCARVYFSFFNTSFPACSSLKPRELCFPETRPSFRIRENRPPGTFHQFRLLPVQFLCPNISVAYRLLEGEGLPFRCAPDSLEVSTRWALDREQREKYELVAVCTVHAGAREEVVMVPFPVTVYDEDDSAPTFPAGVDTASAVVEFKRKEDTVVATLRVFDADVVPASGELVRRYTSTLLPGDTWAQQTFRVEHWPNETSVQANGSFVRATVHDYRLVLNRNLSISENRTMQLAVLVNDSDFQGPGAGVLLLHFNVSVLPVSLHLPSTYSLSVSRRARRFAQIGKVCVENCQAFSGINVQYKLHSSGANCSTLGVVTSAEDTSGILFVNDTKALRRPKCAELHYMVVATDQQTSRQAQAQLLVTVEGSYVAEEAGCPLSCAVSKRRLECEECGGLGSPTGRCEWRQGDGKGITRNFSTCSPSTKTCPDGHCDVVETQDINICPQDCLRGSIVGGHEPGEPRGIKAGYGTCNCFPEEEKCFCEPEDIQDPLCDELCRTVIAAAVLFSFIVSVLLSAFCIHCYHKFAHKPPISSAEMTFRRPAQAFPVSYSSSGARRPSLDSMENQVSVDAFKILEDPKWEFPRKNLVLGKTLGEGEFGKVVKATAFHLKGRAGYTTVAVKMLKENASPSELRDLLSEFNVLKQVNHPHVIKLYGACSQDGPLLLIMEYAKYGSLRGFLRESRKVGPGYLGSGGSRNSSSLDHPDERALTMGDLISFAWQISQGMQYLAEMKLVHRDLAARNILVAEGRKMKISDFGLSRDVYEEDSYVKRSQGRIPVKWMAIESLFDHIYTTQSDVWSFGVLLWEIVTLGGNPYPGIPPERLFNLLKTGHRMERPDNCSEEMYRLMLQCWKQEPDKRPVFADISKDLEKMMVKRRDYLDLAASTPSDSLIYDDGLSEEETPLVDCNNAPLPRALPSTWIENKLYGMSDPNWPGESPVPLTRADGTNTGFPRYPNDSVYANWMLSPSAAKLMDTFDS

[11] = molecular target: Serine/threonine-protein kinase RIO3 (Homo sapiens) (UniProt O14730); conditions: Compound concentration 1000.0 nM
[12] = molecular target: 5-hydroxytryptamine receptor 2B (Homo sapiens) (UniProt P41595); conditions: Compound concentration 10.0 uM
Sequence of 5-hydroxytryptamine receptor 2B (Homo sapiens) (P41595 whole entry): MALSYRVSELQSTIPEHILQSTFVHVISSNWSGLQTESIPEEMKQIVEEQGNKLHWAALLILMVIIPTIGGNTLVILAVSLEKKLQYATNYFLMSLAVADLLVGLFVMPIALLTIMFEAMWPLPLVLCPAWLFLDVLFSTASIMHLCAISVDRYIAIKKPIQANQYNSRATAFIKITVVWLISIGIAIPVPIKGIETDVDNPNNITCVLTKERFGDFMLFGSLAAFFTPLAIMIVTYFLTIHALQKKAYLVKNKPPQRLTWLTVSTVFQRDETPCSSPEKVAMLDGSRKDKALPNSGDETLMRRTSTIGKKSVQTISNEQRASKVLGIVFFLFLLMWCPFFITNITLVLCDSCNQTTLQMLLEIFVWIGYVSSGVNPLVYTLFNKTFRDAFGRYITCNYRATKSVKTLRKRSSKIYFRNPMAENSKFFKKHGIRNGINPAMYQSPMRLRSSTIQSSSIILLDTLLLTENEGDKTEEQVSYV

[13] = molecular target: Alpha-1A adrenergic receptor (Homo sapiens) (UniProt P35348); conditions: Compound concentration 10.0 uM
Sequence of Alpha-1A adrenergic receptor (Homo sapiens) (P35348 whole entry): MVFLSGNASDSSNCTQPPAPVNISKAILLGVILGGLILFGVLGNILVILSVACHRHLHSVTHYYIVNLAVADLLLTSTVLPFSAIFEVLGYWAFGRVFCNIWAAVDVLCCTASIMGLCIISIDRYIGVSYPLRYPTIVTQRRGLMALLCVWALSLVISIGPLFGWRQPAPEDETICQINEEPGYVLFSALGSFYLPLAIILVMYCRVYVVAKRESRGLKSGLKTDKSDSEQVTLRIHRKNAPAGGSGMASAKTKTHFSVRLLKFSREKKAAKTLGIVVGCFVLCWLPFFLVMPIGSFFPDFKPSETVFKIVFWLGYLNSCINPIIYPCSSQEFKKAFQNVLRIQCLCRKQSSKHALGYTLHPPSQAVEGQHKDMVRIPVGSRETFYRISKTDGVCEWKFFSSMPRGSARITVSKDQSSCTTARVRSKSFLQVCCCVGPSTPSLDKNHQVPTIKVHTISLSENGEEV

[14] = molecular target: Mitogen-activated protein kinase 4 (Homo sapiens) (UniProt P31152); conditions: Compound concentration 1000.0 nM
Sequence of Mitogen-activated protein kinase 4 (Homo sapiens) (P31152 whole entry): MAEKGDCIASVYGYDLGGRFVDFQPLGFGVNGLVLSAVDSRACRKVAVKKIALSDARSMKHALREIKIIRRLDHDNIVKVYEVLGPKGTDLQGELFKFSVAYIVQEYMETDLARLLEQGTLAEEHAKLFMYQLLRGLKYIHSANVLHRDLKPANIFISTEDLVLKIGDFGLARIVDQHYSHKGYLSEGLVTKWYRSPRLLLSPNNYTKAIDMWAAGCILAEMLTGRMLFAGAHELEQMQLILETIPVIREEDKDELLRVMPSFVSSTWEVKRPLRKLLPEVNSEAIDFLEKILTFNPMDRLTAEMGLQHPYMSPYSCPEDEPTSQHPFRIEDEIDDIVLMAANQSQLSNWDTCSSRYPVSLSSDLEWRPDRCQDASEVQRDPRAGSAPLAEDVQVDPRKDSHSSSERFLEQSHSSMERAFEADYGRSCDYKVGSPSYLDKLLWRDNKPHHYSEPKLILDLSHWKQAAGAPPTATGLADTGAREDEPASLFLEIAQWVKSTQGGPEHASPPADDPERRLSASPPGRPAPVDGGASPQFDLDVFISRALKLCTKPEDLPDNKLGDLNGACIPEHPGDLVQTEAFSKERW

Sequence of Cyclin-dependent kinase 3 (Homo sapiens) (Q00526 whole entry, looked up): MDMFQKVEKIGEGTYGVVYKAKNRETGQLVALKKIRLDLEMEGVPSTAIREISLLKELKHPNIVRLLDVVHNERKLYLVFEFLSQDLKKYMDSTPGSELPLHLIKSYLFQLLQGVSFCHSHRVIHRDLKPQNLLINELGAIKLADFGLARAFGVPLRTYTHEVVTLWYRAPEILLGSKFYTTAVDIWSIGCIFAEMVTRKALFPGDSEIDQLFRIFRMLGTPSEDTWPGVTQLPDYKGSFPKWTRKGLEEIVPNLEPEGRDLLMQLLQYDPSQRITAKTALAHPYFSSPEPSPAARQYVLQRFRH

Cc1nc(C2CCN(C(=O)c3ccc(OC(F)(F)F)cc3N)CC2)c2ncc(N3CCN(C)CC3)cc2n1 [BAY-693]
inactive: residual activity [1] 100% | residual activity [2] 100% | residual activity [3] 100% | residual activity [4] 97% | residual activity [5] 100% | residual activity [6] 100% | residual activity [7] 98% | residual activity [8] 96% | residual activity [9] 100% | residual activity [10] 100% | residual activity [11] 87% | inhibition [12] -1.28% | inhibition [13] -9.85% | residual activity [14] 91%

CN1CCN(c2cnc3c(C4CCN(C(=O)c5ccc(OC(F)(F)F)cc5N)CC4)ncnc3c2)CC1 [BAY-885]
inactive: residual activity [1] 100% | residual activity [2] 100% | residual activity [3] 100% | residual activity [4] 91% | residual activity [5] 100% | residual activity [6] 100% | residual activity [7] 100% | residual activity [8] 100% | residual activity [9] 100% | residual activity [10] 100% | residual activity [11] 97% | inhibition [12] 3.56% | inhibition [13] 1.11% | residual activity [14] 100%
